# Patent US12466812B2, “Pyridinyltriazine derivative having protein kinase inhibitory activity, and pharmaceutical composition for preventing, ameliorating, or treating cancer comprising same” (KOREA INSTITUTE OF SCIENCE AND TECHNOLOGY, priority 2019, dated 2025)
# What was measured:
# [1] = Microsomal stability; assay type: in vitro ADME; settings: human liver microsomes, based on sample taken at 0 minutes
# [2] = test system: UMUC3 (bladder cancer cell line); test: Pan-FGFR mutant cellular activity; assay type: cell-based; settings: Homo sapiens, Table 4
# Method: (§1) The inhibitory activity against pan-FGFR mutants of the compounds synthesized in Examples 1, 8, 13, 22, and 24 was measured, the inhibitory activity on each of enzymatic activity and cellular activity was evaluated, and the results are shown in Tables 3 and 4 below.
# [3] = test system: KMS-11 (myeloma cell line); test: Pan-FGFR mutant cellular activity; assay type: cell-based; settings: Homo sapiens, Table 4
# Method: as §1
# [4] = test system: J82 (bladder cancer cell line); test: Pan-FGFR mutant cellular activity; assay type: cell-based; settings: Table 4
# Method: as §1
# [5] = test system: AN3-CA; test: Pan-FGFR mutant cellular activity; assay type: cell-based; settings: Homo sapiens, mutant cell, Table 4, read-out: GI50, AN3-CA (breast cancer cell line)
# Method: as §1
# [6] = target: FGFR2 mutant (N549H) (Homo sapiens, UniProt P21802, N549H); test: Pan-FGFR mutant enzymatic activity; assay type: biochemical; settings: mutant enzyme
# Method: as §1
# [7] = target: FGFR2 mutant (V564F) (Homo sapiens, UniProt P21802, V564F); test: Pan-FGFR mutant enzymatic activity; assay type: biochemical; settings: mutant enzyme
# Method: as §1
# [8] = target: FGFR3 mutant (K650E) (Homo sapiens, UniProt P22607, K650E); test: Pan-FGFR mutant enzymatic activity; assay type: biochemical; settings: mutant enzyme
# Method: as §1
# [9] = target: FGFR3 mutant (V555M) (Homo sapiens, UniProt P22607, V555M); test: Pan-FGFR mutant enzymatic activity; assay type: biochemical; settings: mutant enzyme
# Method: as §1
# [10] = target: FGFR3 mutant (K650M) (Homo sapiens, UniProt P22607, K650M); test: Pan-FGFR mutant enzymatic activity; assay type: biochemical; settings: mutant enzyme
# Method: as §1
# [11] = test system: AN3-CA, a uterine cancer cell line; test: Inhibitory activity against cancer cell proliferation (Experimental Example 2); assay type: cell-based; settings: Homo sapiens, Table 2
# [12] = Microsomal stability; assay type: in vitro ADME; settings: dog liver microsomes, based on sample taken at 0 minutes
# [13] = target: CYP3A4 (Homo sapiens, UniProt P08684); test: Inhibitory activity against CYP metabolic enzyme; assay type: in vitro ADME
# Method: (§2) In order to determine whether or not there is a possibility that the compounds synthesized in Examples 1, 22, and 24 of the present invention can cause side effects of drug interaction, the rate (%) of inhibition against 5 major metabolic enzymes (CYP1A2, CYP2C9, CYP2C19, CYP2D6, and CYP3A4) among CYPs (cytochrome P450), which are enzymes involved in oxidative metabolism of drugs, was measured. […] That is, it can be seen that the compound of the present invention has a low possibility of causing side effects of drug interaction.
# [14] = target: CYP2C19 (Homo sapiens, UniProt P33261); test: Inhibitory activity against CYP metabolic enzyme; assay type: in vitro ADME
# Method: as §2
# [15] = target: T1, CYP1A2 (Homo sapiens, UniProt P05177); test: Inhibitory activity against CYP metabolic enzyme; assay type: in vitro ADME
# T1 sequence (P05177 1-516): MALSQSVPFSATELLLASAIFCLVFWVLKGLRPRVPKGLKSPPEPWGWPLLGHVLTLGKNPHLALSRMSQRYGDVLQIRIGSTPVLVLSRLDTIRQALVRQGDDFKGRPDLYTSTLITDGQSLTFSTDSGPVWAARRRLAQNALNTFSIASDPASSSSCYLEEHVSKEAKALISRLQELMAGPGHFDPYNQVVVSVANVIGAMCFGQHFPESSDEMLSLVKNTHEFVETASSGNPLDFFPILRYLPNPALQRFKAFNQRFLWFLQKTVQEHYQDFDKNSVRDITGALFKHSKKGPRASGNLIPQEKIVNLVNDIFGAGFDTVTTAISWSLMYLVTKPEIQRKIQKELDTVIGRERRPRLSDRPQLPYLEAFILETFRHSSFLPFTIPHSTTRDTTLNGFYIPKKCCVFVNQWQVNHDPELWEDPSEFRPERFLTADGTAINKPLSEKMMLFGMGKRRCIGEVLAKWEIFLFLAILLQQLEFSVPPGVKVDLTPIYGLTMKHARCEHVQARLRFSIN
# Method: as §2
# [16] = target: CYP2D6 (Homo sapiens, UniProt P10635); test: Inhibitory activity against CYP metabolic enzyme; assay type: in vitro ADME
# Method: as §2
# [17] = target: CYP2C9 (Homo sapiens, UniProt P11712); test: Inhibitory activity against CYP metabolic enzyme; assay type: in vitro ADME
# Method: as §2
# [18] = Microsomal stability; assay type: in vitro ADME; settings: mouse liver microsomes, based on sample taken at 0 minutes
# [19] = Microsomal stability; assay type: in vitro ADME; settings: rat liver microsomes, based on sample taken at 0 minutes
# [20] = test system: RT112 bladder cancer cell line; settings: J. Med. Chem. 2011, 54:7066-7083; cited from earlier work
# [21] = target: FGFR3 (Homo sapiens, UniProt P22607); settings: J. Med. Chem. 2011, 54:7066-7083; cited from earlier work
# Sequence of FGFR3 (P22607 23-806): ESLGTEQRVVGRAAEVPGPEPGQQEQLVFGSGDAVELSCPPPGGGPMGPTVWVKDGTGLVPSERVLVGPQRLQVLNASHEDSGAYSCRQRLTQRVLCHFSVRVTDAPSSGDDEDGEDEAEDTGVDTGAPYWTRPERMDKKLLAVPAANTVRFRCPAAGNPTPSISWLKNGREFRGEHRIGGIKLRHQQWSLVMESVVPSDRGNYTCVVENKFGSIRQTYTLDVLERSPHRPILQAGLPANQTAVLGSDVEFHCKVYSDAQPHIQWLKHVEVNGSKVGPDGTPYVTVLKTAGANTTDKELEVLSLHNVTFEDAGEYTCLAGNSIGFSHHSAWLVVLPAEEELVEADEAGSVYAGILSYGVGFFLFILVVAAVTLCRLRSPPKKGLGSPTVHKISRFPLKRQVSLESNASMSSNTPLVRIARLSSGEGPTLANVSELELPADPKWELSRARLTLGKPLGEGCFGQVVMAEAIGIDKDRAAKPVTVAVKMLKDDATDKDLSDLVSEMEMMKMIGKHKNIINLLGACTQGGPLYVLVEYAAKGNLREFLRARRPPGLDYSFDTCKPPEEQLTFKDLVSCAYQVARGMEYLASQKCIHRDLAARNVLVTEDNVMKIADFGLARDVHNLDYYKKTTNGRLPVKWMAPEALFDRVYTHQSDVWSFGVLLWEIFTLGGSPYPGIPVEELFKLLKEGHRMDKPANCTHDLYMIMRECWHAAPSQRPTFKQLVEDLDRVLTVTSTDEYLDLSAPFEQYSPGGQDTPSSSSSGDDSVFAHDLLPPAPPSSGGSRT
# Sequence of CYP2C19 (P33261 whole entry): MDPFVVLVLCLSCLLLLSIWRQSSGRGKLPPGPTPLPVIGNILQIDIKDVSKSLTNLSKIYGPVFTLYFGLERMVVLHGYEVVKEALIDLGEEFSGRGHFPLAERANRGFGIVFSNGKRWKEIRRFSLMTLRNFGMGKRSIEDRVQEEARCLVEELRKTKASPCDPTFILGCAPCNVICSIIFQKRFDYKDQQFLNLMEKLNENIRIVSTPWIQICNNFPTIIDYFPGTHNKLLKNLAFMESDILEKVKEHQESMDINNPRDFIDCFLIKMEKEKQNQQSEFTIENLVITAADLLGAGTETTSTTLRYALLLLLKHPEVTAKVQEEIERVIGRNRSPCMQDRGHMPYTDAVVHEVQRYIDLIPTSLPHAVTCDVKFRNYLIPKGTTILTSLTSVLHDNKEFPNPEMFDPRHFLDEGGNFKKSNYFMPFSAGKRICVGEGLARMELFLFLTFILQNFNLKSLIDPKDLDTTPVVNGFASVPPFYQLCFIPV
# Sequence of FGFR3 mutant (K650M) (P22607 23-806 K650M): as the sequence (P22607 23-806) above, with K628M counted along it
# Sequence of FGFR2 mutant (V564F) (P21802 22-821 V564F): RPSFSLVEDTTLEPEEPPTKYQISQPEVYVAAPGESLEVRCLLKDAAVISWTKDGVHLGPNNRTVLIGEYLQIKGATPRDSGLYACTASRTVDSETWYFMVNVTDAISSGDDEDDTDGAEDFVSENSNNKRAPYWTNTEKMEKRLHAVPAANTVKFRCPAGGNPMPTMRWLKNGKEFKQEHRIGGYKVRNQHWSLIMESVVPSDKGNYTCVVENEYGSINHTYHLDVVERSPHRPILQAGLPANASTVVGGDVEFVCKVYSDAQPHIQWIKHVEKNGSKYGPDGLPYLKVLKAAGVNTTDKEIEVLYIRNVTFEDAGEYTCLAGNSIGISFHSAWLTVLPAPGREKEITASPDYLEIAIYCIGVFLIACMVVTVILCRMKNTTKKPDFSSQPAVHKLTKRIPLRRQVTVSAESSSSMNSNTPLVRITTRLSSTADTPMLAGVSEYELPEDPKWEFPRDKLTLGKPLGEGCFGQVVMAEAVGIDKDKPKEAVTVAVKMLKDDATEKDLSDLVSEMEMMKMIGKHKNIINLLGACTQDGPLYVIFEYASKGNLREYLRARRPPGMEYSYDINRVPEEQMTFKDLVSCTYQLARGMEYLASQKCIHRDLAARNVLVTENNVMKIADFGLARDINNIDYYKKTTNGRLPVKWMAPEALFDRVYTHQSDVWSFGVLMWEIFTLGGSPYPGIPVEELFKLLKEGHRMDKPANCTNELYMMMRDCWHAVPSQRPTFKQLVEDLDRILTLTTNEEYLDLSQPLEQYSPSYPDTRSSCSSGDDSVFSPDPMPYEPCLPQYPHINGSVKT
# Sequence of FGFR3 mutant (V555M) (P22607 23-806 V555M): as the sequence (P22607 23-806) above, with V533M counted along it
# Sequence of CYP3A4 (P08684 whole entry): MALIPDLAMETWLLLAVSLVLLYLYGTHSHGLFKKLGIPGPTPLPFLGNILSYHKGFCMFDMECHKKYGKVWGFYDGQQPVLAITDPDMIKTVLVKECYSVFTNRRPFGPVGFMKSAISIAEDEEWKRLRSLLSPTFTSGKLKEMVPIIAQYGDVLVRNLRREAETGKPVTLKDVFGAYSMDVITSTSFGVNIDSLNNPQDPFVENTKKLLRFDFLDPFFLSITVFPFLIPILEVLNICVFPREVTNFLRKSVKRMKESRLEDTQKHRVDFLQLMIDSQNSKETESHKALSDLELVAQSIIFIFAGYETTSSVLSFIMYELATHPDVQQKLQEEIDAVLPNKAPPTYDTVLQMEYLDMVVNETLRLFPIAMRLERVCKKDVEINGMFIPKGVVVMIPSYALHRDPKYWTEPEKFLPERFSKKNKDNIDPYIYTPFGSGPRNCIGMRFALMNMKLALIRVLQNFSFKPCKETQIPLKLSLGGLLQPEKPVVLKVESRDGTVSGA
# Sequence of FGFR2 mutant (N549H) (P21802 22-821 N549H): as the sequence (P21802 22-821 V564F) above, with N528H, F543V counted along it
# Sequence of FGFR3 mutant (K650E) (P22607 23-806 K650E): as the sequence (P22607 23-806) above, with K628E counted along it
# Sequence of CYP2D6 (P10635 whole entry): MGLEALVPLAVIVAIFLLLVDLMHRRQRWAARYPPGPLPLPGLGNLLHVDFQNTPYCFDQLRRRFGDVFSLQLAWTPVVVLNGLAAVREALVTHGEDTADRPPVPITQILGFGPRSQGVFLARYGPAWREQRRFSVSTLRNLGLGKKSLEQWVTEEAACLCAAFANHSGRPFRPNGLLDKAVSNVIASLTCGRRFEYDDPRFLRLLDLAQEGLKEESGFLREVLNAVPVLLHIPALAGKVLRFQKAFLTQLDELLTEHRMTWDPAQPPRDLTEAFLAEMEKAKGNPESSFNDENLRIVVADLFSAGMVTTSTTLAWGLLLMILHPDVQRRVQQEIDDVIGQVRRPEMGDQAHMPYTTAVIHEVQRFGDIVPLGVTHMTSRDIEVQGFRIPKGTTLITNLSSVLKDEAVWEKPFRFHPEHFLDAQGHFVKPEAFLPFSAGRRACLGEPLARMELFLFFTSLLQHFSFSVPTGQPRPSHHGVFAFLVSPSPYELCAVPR
# Sequence of CYP2C9 (P11712 whole entry): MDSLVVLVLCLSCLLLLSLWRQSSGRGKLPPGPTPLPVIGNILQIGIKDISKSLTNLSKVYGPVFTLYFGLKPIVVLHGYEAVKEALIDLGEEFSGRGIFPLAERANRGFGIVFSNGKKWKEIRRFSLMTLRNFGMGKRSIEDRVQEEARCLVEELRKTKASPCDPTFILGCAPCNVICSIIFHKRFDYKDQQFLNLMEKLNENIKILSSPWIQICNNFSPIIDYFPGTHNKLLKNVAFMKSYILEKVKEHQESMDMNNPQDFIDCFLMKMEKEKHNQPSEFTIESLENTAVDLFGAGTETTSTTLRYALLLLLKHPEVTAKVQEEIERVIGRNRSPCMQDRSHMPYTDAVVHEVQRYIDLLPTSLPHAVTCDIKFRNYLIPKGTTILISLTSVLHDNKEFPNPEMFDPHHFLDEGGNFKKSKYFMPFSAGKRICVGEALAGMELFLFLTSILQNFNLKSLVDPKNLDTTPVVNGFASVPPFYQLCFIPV
smiles,measurement,setting,value
COc1cc(OC)c(Cl)c(Nc2ncccc2-c2ncnc(Nc3cnn(C4CCN(C(C)C)CC4)c3)n2)c1Cl [Example 22],"remaining (%) after reaction with the microsome, Human",[1],21.8%
same,"remaining (%) after reaction with the microsome, Human",[1]; listed as Compound No. 22,21.8%
same,GI50,[2],< 1000 nM
same,GI50,[3],< 1000 nM
same,GI50,[4],< 1000 nM
same,GI50,[5],< 1000 nM
same,IC50,[6],< 100 nM
same,IC50,[7],100 to 1000 nM
same,IC50,[8],< 100 nM
same,IC50,[9],< 100 nM
same,IC50,[10],< 100 nM
same,GI50,[11],< 1000 nM
same,"remaining (%) after reaction with the microsome, Dog",[12],8.3%
same,"remaining (%) after reaction with the microsome, Dog",[12]; listed as Compound No. 22,8.3%
same,"rate (%) of inhibition, CYP3A4",[13],17.6%
same,"rate (%) of inhibition, CYP2C19",[14],44.6%
same,"rate (%) of inhibition, CYP1A2",[15],75.9%
same,"rate (%) of inhibition, CYP2D6",[16],81.0%
same,"rate (%) of inhibition, CYP2C9",[17],79.1%
same,"remaining (%) after reaction with the microsome, Mouse",[18],11.5%
same,"remaining (%) after reaction with the microsome, Mouse",[18]; listed as Compound No. 22,11.5%
same,"remaining (%) after reaction with the microsome, Rat",[19],7.7%
same,"remaining (%) after reaction with the microsome, Rat",[19]; listed as Compound No. 22,7.7%
"CCN1CCN(c2ccc(Nc3cc(N(C)C(=O)Nc4c(Cl)c(OC)cc(OC)c4Cl)ncn3)cc2)CC1 [3-(2,6-dichloro-3,5-dimethoxyphenyl)-1-6-[4-(4-ethyl-piperazin-1-yl)phenylamino]pyrimidine-4-yl-1-methyl urea]",anticancer activity against the RT112 bladder cancer cell line,[20],effective anticancer activity
same,inhibitory activity against FGFR3,[21],selective inhibitory activity
